Patent US11000033B2, “Ketone or oxime compound, and herbicide” (NISSAN CHEMICAL CORPORATION, priority 2014, dated 2021)

Columns and labels:
Type in all cases: in vivo
[1] = tested on: transplanted rice plant; test: Test Example 1: effect on crop, application before weed generation in submerged conditions (symbol a); settings: application herbicide amount 320 g/ha
Summary of the method: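 Rice at 2.5 leaf stage transplanted into submerged soil (4 cm depth) sown with three weed species; herbicide applied before weed emergence.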

[2] = tested on: Monochoria vaginalis; test: Test Example 2: herbicidal activity, application during weed generation in submerged conditions (symbol C); settings: Table 23; application herbicide amount 320 g/ha; grade 0-5 by criteria of Test Example 1
Summary of the method: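 Seeds sown in flooded alluvial soil (4 cm water) were grown in a 25-30° C greenhouse. At the one- to two-leaf stage, diluted emulsion of compound was applied to the water surface at a predetermined rate. Effect was scored 3 weeks later.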

[3] = tested on: Echinochloa crus-galli var. crus-galli; test: Test Example 4: herbicidal effect by soil treatment (symbol H)
Summary of the method: (§1)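 Seeds were sown in sterilized diluvial soil, covered with about 1.5 cm of soil, and the soil surface was sprayed with a water-diluted emulsion of the compound at a predetermined rate. Plants grew in a greenhouse at 25° C. to 30° C.; effects were scored visually 3 weeks after application.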

[4] = tested on: Amaranthus retroflexus; test: Test Example 4: herbicidal effect by soil treatment (symbol N)
Summary of the method: as §1

[5] = tested on: Stellaria media; test: Test Example 4: herbicidal effect by soil treatment (symbol P)
Summary of the method: as §1

[6] = tested on: Galium spurium; test: Test Example 4: herbicidal effect by soil treatment (symbol Q)
Summary of the method: as §1

[7] = tested on: rice; test: Test Example 4: effect on crop by soil treatment (symbol b); settings: for b: directly sowed rice plant, effect grade on crop: 320 g/ha
Summary of the method: (§2)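 Plants are raised in a greenhouse (25° C. to 30° C.) from spot-sown seed, which sits under about 1.5 cm of sterilized diluvial soil in a box shared with weed species.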

[8] = tested on: beet; test: Test Example 4: effect on crop by soil treatment (symbol f); settings: for f: beet, effect grade on crop: 320 g/ha
Summary of the method: as §2

[9] = tested on: Digitaria ciliaris; test: Test Example 5: herbicidal effect by foliage application, plastic box (symbol F); settings: 320 g/ha, 3 weeks after application
Summary of the method: (§3)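 Emulsion formulation, diluted with water to the intended rate, was applied uniformly to leaves by small sprayer. Recipients were 14-day greenhouse-grown seedlings (25° C. to 30° C.). Assessment followed at 3 weeks.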

[10] = tested on: Setaria viridis; test: Test Example 5: herbicidal effect by foliage application, plastic box (symbol G); settings: 320 g/ha, 3 weeks after application
Summary of the method: as §3

[11] = tested on: Avena fatua; test: Test Example 5: herbicidal effect by foliage application, plastic box (symbol I); settings: 320 g/ha, 3 weeks after application
Summary of the method: as §3

[12] = tested on: Abutilon theophrasti; test: Test Example 5: herbicidal effect by foliage application, plastic box (symbol M); settings: 320 g/ha, 3 weeks after application
Summary of the method: as §3

[13] = tested on: Stellaria media; test: Test Example 5: herbicidal effect by foliage application, plastic box (symbol P); settings: 320 g/ha, 3 weeks after application
Summary of the method: as §3

[14] = tested on: rice plant; test: Test Example 5: effect on crop by foliage application, plastic box (symbol b); settings: 320 g/ha, 3 weeks after application
Summary of the method: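 Crop and weed seeds sown in spots in sterilized diluvial soil in plastic boxes and covered with about 1.5 cm soil. Plants raised in a greenhouse at 25° C. to 30° C. for foliar application.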

[15] = application herbicide amount 320 g/ha

Row | Compound | Effect grade on crop, a: transplanted rice plant [1] | Herbicidal effect grade, C: Monochoria vaginalis [2] | H: Echinochloa crus-galli var. crus-galli, herbicidal effect grade ([3]; 320 g/ha) | N: Amaranthus retroflexus, herbicidal effect grade ([4]; 320 g/ha) | P: Stellaria media, herbicidal effect grade ([5]; 320 g/ha) | Q: Galium spurium, herbicidal effect grade ([6]; 320 g/ha) | b: directly sowed rice plant, effect grade on crop [7] | f: beet, effect grade on crop [8] | F: Digitaria ciliaris, herbicidal effect (criteria 0-5) [9] | G: Setaria viridis, herbicidal effect (criteria 0-5) [10] | I: Avena fatua, herbicidal effect (criteria 0-5) [11] | M: Abutilon theophrasti, herbicidal effect (criteria 0-5) [12] | P: Stellaria media, herbicidal effect (criteria 0-5) [13] | b: directly sowed rice plant, effect on crop (criteria 0-5) [14] | F: Digitaria ciliaris, herbicidal effect grade [9] | G: Setaria viridis, herbicidal effect grade [10] | I: Avena fatua, herbicidal effect grade [11] | M: Abutilon theophrasti, herbicidal effect grade [12] | P: Stellaria media, herbicidal effect grade [13] | b: directly sowed rice plant, effect on crop grade [14] | also measured
1 | CON=C(C)CC1CC(OC(=O)CSc2ccccc2)=C(c2c(C)cc(C)cc2C)C1=O (stereo not shown) [1-134] | 5 (Herbicidal ratio of 90% or more (almost completely withered)) | 3 (Herbicidal ratio of 40% or higher and lower than 70%) | 5 (Herbicidal ratio of 90% or more (almost completely withered)) | 4 (Herbicidal ratio of 70% or higher and lower than 90%) | 0 (Herbicidal ratio of 5% or lower (almost no effect)) | 0 (Herbicidal ratio of 5% or lower (almost no effect)) | 5 (Herbicidal ratio of 90% or more (almost completely withered)) | 0 (Herbicidal ratio of 5% or lower (almost no effect)) | 5 (Herbicidal ratio of 90% or more (almost completely withered)) | 5 (Herbicidal ratio of 90% or more (almost completely withered)) | 5 (Herbicidal ratio of 90% or more (almost completely withered)) | 2 (Herbicidal ratio of 20% or higher and lower than 40%) | 2 (Herbicidal ratio of 20% or higher and lower than 40%) | 5 (Herbicidal ratio of 90% or more (almost completely withered)) | – | – | – | – | – | – | –
2 | CON=C(CC1CC(O)=C(c2c(C)cc(C)cc2OC)C1=O)C1CC1 (mixture of isomers) [13-002] | – | 2 (Herbicidal ratio of 20% or higher and lower than 40%) | – | – | – | – | – | – | – | – | – | – | – | – | 5 (Herbicidal ratio of 90% or more (almost completely withered)) | 5 (Herbicidal ratio of 90% or more (almost completely withered)) | 5 (Herbicidal ratio of 90% or more (almost completely withered)) | 2 (Herbicidal ratio of 20% or higher and lower than 40%) | 3 (Herbicidal ratio of 40% or higher and lower than 70%) | 5 (Herbicidal ratio of 90% or more (almost completely withered)) | a (transplanted rice plant) effect on crop grade [1]: 5 (Herbicidal ratio of 90% or more (almost completely withered)); H: Echinochloa crus-galli var. crus-galli, herbicidal effect grade [3, 15]: 5 (Herbicidal ratio of 90% or more (almost completely withered)); N: Amaranthus retroflexus, herbicidal effect grade [4, 15]: 0 (Herbicidal ratio of 5% or lower (almost no effect)); P: Stellaria media, herbicidal effect grade [5, 15]: 0 (Herbicidal ratio of 5% or lower (almost no effect)); Q: Galium spurium, herbicidal effect grade [6, 15]: 0 (Herbicidal ratio of 5% or lower (almost no effect)); b: directly sowed rice plant, effect on crop grade [7, 15]: 5 (Herbicidal ratio of 90% or more (almost completely withered)); f: beet, effect on crop grade [8, 15]: 0 (Herbicidal ratio of 5% or lower (almost no effect))
3 | CC(CC1CC(O)=C(c2c(C)cc(C)cc2C)C1=O)=NOCC[S+](C)[O-] (stereo not shown) [1-125] | 5 (Herbicidal ratio of 90% or more (almost completely withered)) | 0 (Herbicidal ratio of 5% or lower (almost no effect)) | 5 (Herbicidal ratio of 90% or more (almost completely withered)) | 0 (Herbicidal ratio of 5% or lower (almost no effect)) | 0 (Herbicidal ratio of 5% or lower (almost no effect)) | 0 (Herbicidal ratio of 5% or lower (almost no effect)) | 5 (Herbicidal ratio of 90% or more (almost completely withered)) | 0 (Herbicidal ratio of 5% or lower (almost no effect)) | 5 (Herbicidal ratio of 90% or more (almost completely withered)) | 5 (Herbicidal ratio of 90% or more (almost completely withered)) | 5 (Herbicidal ratio of 90% or more (almost completely withered)) | 0 (Herbicidal ratio of 5% or lower (almost no effect)) | 2 (Herbicidal ratio of 20% or higher and lower than 40%) | 5 (Herbicidal ratio of 90% or more (almost completely withered)) | – | – | – | – | – | – | –
4 | CON=C(CC1CC(O)=C(c2c(C)cc(C)cc2C)C1=O)C(F)(F)F (stereo not shown) [1-097] | 3 (Herbicidal ratio of 40% or higher and lower than 70%) | 0 (Herbicidal ratio of 5% or lower (almost no effect)) | 2 (Herbicidal ratio of 20% or higher and lower than 40%) | 0 (Herbicidal ratio of 5% or lower (almost no effect)) | 0 (Herbicidal ratio of 5% or lower (almost no effect)) | 0 (Herbicidal ratio of 5% or lower (almost no effect)) | 2 (Herbicidal ratio of 20% or higher and lower than 40%) | 0 (Herbicidal ratio of 5% or lower (almost no effect)) | 5 (Herbicidal ratio of 90% or more (almost completely withered)) | 5 (Herbicidal ratio of 90% or more (almost completely withered)) | 3 (Herbicidal ratio of 40% or higher and lower than 70%) | 3 (Herbicidal ratio of 40% or higher and lower than 70%) | 0 (Herbicidal ratio of 5% or lower (almost no effect)) | 5 (Herbicidal ratio of 90% or more (almost completely withered)) | – | – | – | – | – | – | –
5 | CON=C(C)CC1CC(OS(C)(=O)=O)=C(c2c(C)cc(C)cc2C)C1=O (stereo not shown) [1-006] | 4 (Herbicidal ratio of 70% or higher and lower than 90%) | 3 (Herbicidal ratio of 40% or higher and lower than 70%) | – | – | – | – | – | – | – | – | – | – | – | – | 5 (Herbicidal ratio of 90% or more (almost completely withered)) | 5 (Herbicidal ratio of 90% or more (almost completely withered)) | 5 (Herbicidal ratio of 90% or more (almost completely withered)) | 4 (Herbicidal ratio of 70% or higher and lower than 90%) | 0 (Herbicidal ratio of 5% or lower (almost no effect)) | 5 (Herbicidal ratio of 90% or more (almost completely withered)) | H (Echinochloa crus-galli var. crus-galli) herbicidal effect grade [3, 15]: 5 (Herbicidal ratio of 90% or more (almost completely withered)); N (Amaranthus retroflexus) herbicidal effect grade [4, 15]: 4 (Herbicidal ratio of 70% or higher and lower than 90%); P (Stellaria media) herbicidal effect grade [5, 15]: 0 (Herbicidal ratio of 5% or lower (almost no effect)); Q (Galium spurium) herbicidal effect grade [6, 15]: 0 (Herbicidal ratio of 5% or lower (almost no effect)); b (directly sowed rice plant) effect on crop grade [7, 15]: 5 (Herbicidal ratio of 90% or more (almost completely withered)); f (beet) effect on crop grade [8, 15]: 0 (Herbicidal ratio of 5% or lower (almost no effect))
